In patent US20060111551A1, “Peptide having HTLV-1-specific CTL-inducing activity” (priority 2003, published 2006):

What was measured:
[1] = test system: CTL induced from post-HSCT patient R07; conditions: HLA-A24+ TOK cells pulsed with peptide; effector-to-target ratio 8; 18 hours; FIG. 5
Protocol: Following 18 hours of incubation, IFN-γ in the supernatant was measured by ELISA assay. Values represent the mean of duplicate assays.
IFN-γ production by the effector cells was measured by ELISA (Human IFN-γ ELISA Kit; Endogen, Woburn, Mass.) following 18 hours of incubation with target cells at various E/T ratios in duplicate.
Subsequently, epitope mapping of these CTL was performed. […] The present inventors stained these cultured PBMCs with the tetramer of HLA-A*2402/Tax301-309.

[2] = test system: CTL line of post-HSCT patient #37; conditions: LCL-#36 cells pulsed with 10 mM peptide; effector-to-target ratio 10; FIG. 3
Protocol: Values represent the mean of specific lysis of triplicate assays.
Cytotoxic activities were measured by 6-hour ^51Cr-release assay at various effector-to-target (E/T) cell ratios as described previously (J. Natl. Cancer Inst. 93, 1775-1783, 2001; J. Virol. 76, 7010-7019, 2002). Specific cytotoxicity was calculated as ([experimental ^51Cr release−spontaneous ^51Cr release]/[maximum ^51Cr release−spontaneous ^51Cr release]×100%).

[3] = test system: uncultured PBMC of recipient #37 and donor #36; test: IFN-γ ELISPOT assay of uncultured PBMC; assay type: cell-based, human; conditions: overnight incubation with 10 μg/ml peptide, mean±SD of triplicate
Excerpt: IFN-γ producing antigen-specific T cells were counted using IFN-γ-specific ELISPOT assays as previously described (J. Immunol. Methods 191, 131-142, 1996; J. Exp. Med. 186, 859-865, 1997). […] After 10-min reaction with BICP/NBT alkaline phosphatase substrate (SIGMA), colored spots on the dried membranes were counted using a KS-ELISPOT microscopy system (Carl Zeiss, Jena, Germany).
It was next investigated whether there are any qualitative or quantitative differences in HTLV-I-specific CTL responses among pre-HSCT #37, post-HSCT #37, and donor #36. To examine HTLV-I-specific CTL precursor cell number without experimental biases by in vitro culture, frozen stored PBMC were immediately subjected to ELISPOT assay for IFN-γ production. The results of CTL precursor in the uncultured PBMC of recipient #37 and donor #36 responding to ILT-#37 or Tax epitope are shown in Table 1. […] Values represent the mean±SD of triplicate assays. Further, the results of ELISPOT assay of IFN-γ are shown by spot forming cells (SFC) per 10^5 PBMC.

SFHSLHLLFEEYTNI [Tax301-315]
reaction with responder cells (IFN-γ production against peptide-pulsed TOK cells) [1]: selectively reacted

MAHFPGFGQSLLFGYPVYVFGDCV [Tax1-24]
killing of peptide-pulsed LCL-#36 cells by CTL line of post-HSCT patient #37 [2]: selectively killed

LLFEEYTNI [Tax307-315, synthetic oligopeptide of HTLV-I Tax]
IFN-γ-producing SFC/10^5 PBMC, Donor #36 ([3]; PBMC of donor #36): 1 ± 0.6 SFC/10^5 PBMC | IFN-γ-producing SFC/10^5 PBMC, Post-HSCT #37 ([3]; PBMC of post-HSCT patient #37): 2 ± 1 SFC/10^5 PBMC | IFN-γ-producing SFC/10^5 PBMC, Pre-HSCT #37 ([3]; PBMC of pre-HSCT patient #37): 18 ± 2 SFC/10^5 PBMC
